Structures are written as SMILES.

The text below walks through data of patent publication US8680282B2, “Cyclic inhibitors of carnitine palmitoyltransferase and treating cancer” (University Health Network, priority 2007, dated 2014).

In one assay the target is T1, human CPT1A (Homo sapiens, UniProt P50416).
T1 construct: made in house; host or cells: Saccharomyces cerevisiae (pESC-trp) or cultured mammalian cells (pCDNA3.1); mitochondrial extract
T1 sequence (P50416 1-773): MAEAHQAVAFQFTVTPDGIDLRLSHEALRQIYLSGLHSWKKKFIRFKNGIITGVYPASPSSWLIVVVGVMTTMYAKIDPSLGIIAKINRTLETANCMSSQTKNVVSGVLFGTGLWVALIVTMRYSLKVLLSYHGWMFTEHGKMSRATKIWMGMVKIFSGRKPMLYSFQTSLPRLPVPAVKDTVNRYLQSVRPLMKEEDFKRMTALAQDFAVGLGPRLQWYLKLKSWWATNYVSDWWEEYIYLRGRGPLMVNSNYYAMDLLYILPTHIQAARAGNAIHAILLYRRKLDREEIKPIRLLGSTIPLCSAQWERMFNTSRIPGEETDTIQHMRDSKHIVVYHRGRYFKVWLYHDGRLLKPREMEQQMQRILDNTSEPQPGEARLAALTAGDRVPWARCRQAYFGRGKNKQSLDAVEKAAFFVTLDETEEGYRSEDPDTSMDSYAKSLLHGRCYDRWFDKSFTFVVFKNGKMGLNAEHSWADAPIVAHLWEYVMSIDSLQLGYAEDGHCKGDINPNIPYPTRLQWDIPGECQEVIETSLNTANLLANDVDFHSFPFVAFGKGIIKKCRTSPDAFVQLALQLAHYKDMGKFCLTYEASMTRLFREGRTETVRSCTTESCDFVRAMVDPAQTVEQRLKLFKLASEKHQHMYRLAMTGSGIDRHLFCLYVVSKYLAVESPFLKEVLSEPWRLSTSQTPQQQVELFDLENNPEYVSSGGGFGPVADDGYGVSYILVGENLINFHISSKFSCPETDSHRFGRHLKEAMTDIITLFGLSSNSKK
The assay is described as follows: Human CPT1A LC/MS assay. The class given is biochemical. Conditions: human CPT1A LC/MS assay, dose response format. The source says: Nucleotide sequences encoding human CPT1 enzymes were individually cloned into the yeast expression vector pESC-trp at the Cla1 (5′ terminus) and Pac1 (3′ terminus) restriction sites by PCR amplification of the open reading frame using oligonucleotide primers designed to encode the wild-type CPT1 protein sequence. Standard molecular biology techniques were used to transform and express the CPT1 proteins in the yeast Saccharomyces cerevisiae. The yeast cells were lysed by enzymatic degradation of the cell wall by Zymolase, and the mitochondria were isolated by standard biochemical techniques. The integrity of the isolated mitochondria was monitored by determining the activity of succinate dehydrogenase in the mitochondrial preparations. The mitochondrial extracts were stored at −80° C. in buffer containing 10 mM HEPES pH 7.4 and 250 mM sucrose.
Human CPT1 (A, B, C) genes were additionally cloned into the pCDNA3.1 vector individually for expression in cultured mammalian cells. Cells expressing the exogenous CPT1A were identified and grown under standard conditions. Mammalian cells were harvested, and mitochondrial extracts prepared using standard biochemical methods. The mitochondrial extracts were stored at −80° C. in buffer containing 10 mM HEPES pH 7.4 and 250 mM sucrose.
Assays were performed in 96-well plate format. Each 100 μL reaction contained 40 mM KCl, 50 mM TrisHCl pH 7.5, and 250 mM mannitol (Assay Buffer), and 1.6 μg protein of an extract, 20 μM palmitoyl-CoA, 50 μM L-carnitine, and 10 ug/mL BSA. Reactions were incubated at room temperature and stopped after 10 minutes by extraction with 200 μL of water saturated n-butanol containing myristoyl carnitine (500 nM) as an internal standard. The samples were thoroughly mixed, and the phases separated by centrifugation. Samples were prepared for analysis with a 10 fold dilution of the n-butanol phase containing the reaction product palmitoyl carnitine into a 50:50 (acetonitrile:water) solvent for analysis. 5 μL of prepared sample was separated on a Phenomenex Jupiter 5μ C4 reverse-phase column using an Agilent 1100 HPLC with a gradient from 50% acetonitrile (0.5% acetic acid) to 100% acetonitrile and quantified by detection with a Bruker Esquire 3000plus mass spectrometer. The abundance of the palmitoyl carnitine product was determined relative to the internal standard and the actual quantity of palmitoyl carnitine can be determined from a standard curve prepared using the n-butanol solution containing the internal standard.
Compounds were evaluated in two formats, a screening format, and a dose response format. The screening format was performed by adding 25 μL compound in 20% DMSO and Assay Buffer to 25 μL of extract containing […] and Assay Buffer, followed by a 10 minute incubation at room temperature. 50 μL of 40 μM palmitoyl-CoA in Assay Buffer was added to the reaction mixture, mixed and incubated for 10 minutes at room temperature. A negative control for activity was also performed where the carnitine was omitted from the reaction. A positive control for activity was also performed by omitting compound from the solution containing 20% DMSO and Assay Buffer. The reaction mixture was extracted and analyzed as described above. The inhibition by compound was determined by comparing the control relative activity to the relative activity observed in wells containing the compound. Relative activity was determined by subtracting the relative intensity (area palmitoyl carnitine/area myristoyl carnitine) observed in the negative control from the relative intensity observed in the experimental well, and dividing by the relative activity observed in the positive control.
[formula] Compound characterization by dose response format was performed using the above described assay conditions and a 16 point compound titration in 2 fold compound dilution steps. The DMSO concentration was kept constant at 20% (v/v) for all compound concentrations.

A further assay has as its system Hs578T. The assay is described as follows: Cancer cell growth inhibition, SRB assay. Conditions: Homo sapiens, Hs-578T, 144 h; Hs578T (Breast); SRB at Day 6; triplicate. Format: cell-based. In general terms: Sulforhodamine B stains cellular protein and so reports cell mass.
A further assay concerns HCT-15. Nature of the assay: Cancer cell growth inhibition, SRB assay. Format: cell-based, human. Also on record: Percentage of Growth Inhibition: scale not given here. The conditions noted are these: SRB at Day 6; for GI50: Homo sapiens, 144 h, HCT-15 (Colon), triplicate; for Percentage of Growth Inhibition: HCT-15, at 10 μM, NE = no activity at 10 micromolar.
A further assay deals with SW480. The assay is described as follows: Cancer cell growth inhibition, SRB assay. The conditions noted are these: SRB at Day 6; for GI50: Homo sapiens, 144 h, SW480 (Colon), triplicate; for Percentage of Growth Inhibition: SW480, at 10 μM, NE = no activity at 10 micromolar. The class given is cell-based, human.
Another assay deals with Caov-3. The assay is described as follows: Cancer cell growth inhibition, SRB assay. Format: cell-based. Conditions: Homo sapiens, 144 h; Caov-3 (Ovarian); SRB at Day 6; triplicate.

Usually IC50 stands for the concentration that inhibits the measured activity by half. Broadly, the GI50 is the concentration at which growth is held to half of that of the control. `CCCCCCCCc1ccc(NC(=O)NC2(CC(=O)O)CC[N+](C)(C)CC2)cc1` [Example S2, 4-(Carboxymethyl)-1,1-dimethyl-4-(3-(4-octylphenyl)ureido)piperidinium 2,2,2-trifluoroacetate]: the half-maximal inhibitory concentration (IC50) at human CPT1A was 10 to 100 µM. The GI50 in the assay with Hs578T is 50 µM; in the assay on HCT-15, 3 µM; in the assay with SW480 it was 0.7 µM.

On to `C[N+]1(C)CCC(CC(=O)O)(NC(=O)c2ccc(CCc3ccccc3)o2)CC1` [Example S5, 4-(Carboxymethyl)-1,1-dimethyl-4-(5-phenethylfuran-2-carboxamido)-piperidinium 2,2,2-trifluoroacetate], for which the concentration for half-maximal inhibition (IC50) against human CPT1A lay in the range of 1 to 10 µM.

In turn, `CCCCCCCCCCc1ccc(C(=O)NC2(CC(=O)O)CCN(C)C2)cc1` (centres unmarked) [Example S21, 3-(carboxymethyl)-3-(4-decylbenzamido)-1-methylpyrrolidinium 2,2,2-trifluoroacetate] registered an IC50 at human CPT1A of 10 to 100 µM. Further, the “Percentage of Growth Inhibition” value in the assay with HCT-15 was found to be 0.04235%; with SW480, 0.09568%.

In the case of `CCCCCCCCc1ccc(NS(=O)(=O)NC2(CC(=O)O)CC[N+](C)(C)CC2)cc1` [Example S8, 4-(carboxymethyl)-1,1-dimethyl-4-(N-(4-octylphenyl)sulfamoylamino)piperidinium 2,2,2-trifluoroacetate], the IC50 against human CPT1A was in the range of 1 to 10 µM. Further, the GI50 came to 26 µM with Hs578T, 9 µM in the assay with HCT-15, 2.8 µM with SW480 and 2 µM with Caov-3.

`CCCCCc1ccc(S(=O)(=O)NC2(CC(=O)O)CN(C)C2)cc1` [Example S27, 3-(carboxymethyl)-1-methyl-3-(4-pentylphenylsulfonamido)azetidinium 2,2,2-trifluoroacetate] gave an IC50 at human CPT1A of 10 to 100 µM.

In the case of `CCCCCCCCc1ccc(NC(=O)NC2(CC(=O)O)CCC[NH+](C)C2)cc1` (centres unmarked) [Example S9, 3-(Carboxymethyl)-1-methyl-3-(3-(4-octylphenyl)ureido)piperidinium 2,2,2-trifluoroacetate], the IC50 against human CPT1A lay within 10 to 100 µM. Further, the “Percentage of Growth Inhibition” value in the assay on SW480 worked out at 0.00756%.

The molecule `CCCCCc1ccc(S(=O)(=O)NC2(CC(=O)O)C[N+](C)(C)C2)cc1` [Example S29, 3-(carboxymethyl)-1,1-dimethyl-3-(4-pentylphenylsulfonamido)-azetidinium 2,2,2-trifluoroacetate] registered an IC50 against human CPT1A of 10 to 100 µM. Moreover, the concentration for 50% growth inhibition (GI50) with Hs578T, with HCT-15 and in the assay on SW480 was over 50 µM in each case.

`CCCCCCCCc1ccc(NC(=O)NC2(CC(=O)O)CC[N+](C)(C)C2)cc1` (centres unmarked) [Example S18, 3-(carboxymethyl)-1,1-dimethyl-3-(3-(4-octylphenyl)ureido)-pyrrolidinium 2,2,2-trifluoroacetate] yielded an IC50 at human CPT1A of 10 to 100 µM. Moreover, the 50% growth inhibitory concentration (GI50) with Hs578T stood at 26 µM; with HCT-15, 5.4 µM; in the assay on SW480, 1.2 µM.

With `CCCCCc1ccc(S(=O)(=O)NC2(CC(=O)O)CC[N+](C)(C)CC2)cc1` [Example S4, 4-(Carboxymethyl)-1,1-dimethyl-4-(4-pentylphenylsulfonamido)piperidinium 2,2,2-trifluoroacetate], the IC50 on human CPT1A was at most 1 µM. For the same molecule, the concentration for 50% growth inhibition (GI50) in the assay on HCT-15 and in the assay on SW480 was over 50 µM in each case.

On human CPT1A, `CCCCCCCCc1ccc(N(C)S(=O)(=O)NC2(CC(=O)O)CCC[N+](C)(C)C2)cc1` (centres unmarked) [Example S30, 3-(carboxymethyl)-1,1-dimethyl-3-(N-methyl-N-(4-octylphenyl)-sulfamoylamino)piperidinium 2,2,2-trifluoroacetate] had a half-inhibitory concentration (IC50) of 10 to 100 µM. In addition, the figures for the concentration for 50% growth inhibition (GI50) with Hs578T, in the assay with HCT-15 and in the assay with SW480 were 3 µM, 14 µM and 3.5 µM, respectively.

At human CPT1A, `CCCCCCCCCCc1ccc(C(=O)NC2(CC(=O)O)CC[N+](C)(C)C2)cc1` (centres unmarked) [Example S22, 3-(Carboxymethyl)-3-(4-decylbenzamido)-1,1-dimethylpyrrolidinium 2,2,2-trifluoroacetate] returned a 50% inhibitory concentration (IC50) of 1 to 10 µM. Also, the “Percentage of Growth Inhibition” value is reported as 0.07473% with HCT-15 and 0.6141% with SW480.

Turning to `C[N+]1(C)CCC(CC(=O)O)(NC(=O)c2ccc(C#Cc3ccccc3)o2)CC1` [Example S6, 4-(Carboxymethyl)-1,1-dimethyl-4-(5-(phenylethynyl)furan-2-carboxamido)-piperidinium 2,2,2-trifluoroacetate], the IC50 against human CPT1A is 100 to 1000 µM. In addition, in the assay with SW480, the “Percentage of Growth Inhibition” value is reported as 0.03677%.

As for `CCCCCc1ccc(S(=O)(=O)NC2(CC(=O)O)CC[N+](C)(C)C2)cc1` (centres unmarked) [Example S20, 3-(carboxymethyl)-1,1-dimethyl-3-(4-pentylphenylsulfonamido)-pyrrolidinium 2,2,2-trifluoroacetate], the IC50 on human CPT1A was in the range of 1 to 10 µM. Moreover, in the assay with SW480, the “Percentage of Growth Inhibition” value was 0.02596%.

As for `O=C(O)CC1(NC(=O)c2ccc(C#Cc3ccccc3)o2)CNC1` [Example S26, 3-(carboxymethyl)-3-(5-(phenylethynyl)furan-2-carboxamido)-azetidinium 2,2,2-trifluoroacetate], the half-maximal inhibitory concentration (IC50) against human CPT1A lay in the range of 100 to 1000 µM. For the same molecule, the “Percentage of Growth Inhibition” value in the assay with SW480 turned out to be 0.04449%.

On to `CCCCCCCCc1ccc(NC(=O)NC2(CC(=O)O)CCC[N+](C)(C)C2)cc1` (centres unmarked) [Example S10, 3-(carboxymethyl)-1,1-dimethyl-3-(3-(4-octylphenyl)ureido)-piperidinium 2,2,2-trifluoroacetate], for which the IC50 on human CPT1A is 10 to 100 µM. Also, the 50% growth inhibitory concentration (GI50) in the assay on Hs578T came out at 39 µM; in the assay with HCT-15, 16 µM; in the assay with SW480 it was 0.7 µM.

On human CPT1A, `CCCCCc1ccc(S(=O)(=O)NC2(CC(=O)O)CCN(C)CC2)cc1` [Example S3, 4-(carboxymethyl)-1-methyl-4-(4-pentylphenylsulfonamido)piperidinium 2,2,2-trifluoroacetate] had a 50% inhibitory concentration (IC50) of 10 to 100 µM. The entries for the “Percentage of Growth Inhibition” value in the assay on HCT-15 and in the assay on SW480 were 0.06515% and 0.0383%, respectively.
